According to patent US4758566A, “2-(1-piperazinyl)-4-substituted phenylquinoline derivatives, processes for the preparation thereof, and pharmaceutical composition containing the same” (Dainippon Pharmaceutical Co., Ltd., priority 1984, dated 1988):
Counter-ions that a name gives are not always drawn.

Key:
[1] = system: ulceration induced by exposure to stress (restraint and water immersion) in rats; test: Effect on the ulceration induced by exposure to stress (restraint and water immersion) in rats, Test 2; format: in vivo, rat (male Wistar); conditions: for inhibition in vivo at 10 mg/kg / Ulcer index: stress-induced ulcer
Description: Effect on the ulceration induced by exposure to stress (restraint and water immersion) in rats The effect evaluated by this test is considered to be fairly well correlative to inhibitory effect on gastric acid secretion. Male Wistar rats weighing about 200 g were used in groups of 5 animals each. According to the method of Takagi et al. [cf. Japan. […] After 20 hours, the animals were taken out from the water bath and sacrificed under ether anesthesia, and the stomachs were removed. The stomach was inflated with 13 ml of physiological saline and placed in a 5% formalin solution for 5 minutes. After washing with physiological saline, the stomach was cut along the greater curvature and the length (mm) of each lesion in the glandular portion was measured using a dissecting microscope (×12). The sum of the length (mm) of each lesion in a stomach was indicated as an ulcer index. The inhibitory rate was determined by comparing the ulcer index in drug-treated groups with that in control group. Test compounds were administered orally 30 minutes before the immersion. In the control group, a vehicle (a 0.5% tragacanth solution) was administered orally.

[2] = system: ulceration induced by ethanol in rats; test: Effect on the ulceration induced by ethanol in rats (gastric cytoprotection activity), Test 1; format: in vivo, rat (male Wistar); conditions: for Ulcer index / inhibition in vivo at 10 mg/kg: ethanol-induced ulcer
Description: Effect on the ulceration induced by ethanol in rats (gastric cytoprotection activity) This test was carried out according to the method of Robert [cf. […] Male Wistar rats weighing 190 g to 200 g were fasted for 24 hours and then given orally 1 ml of absolute ethanol. After 1 hour, the animals were sacrificed under ether anesthesia, and the stomachs were removed and cut along the greater curvature. The length (mm) of each lesion in the glandular portion was measured using a dissecting microscope (×12). The sum of the length (mm) of each lesion in a stomach was indicated as an ulcer index. The inhibitory rate was determined by comparing the ulcer index in drug-treated groups with that in control group. Test compounds were administered orally 30 minutes before the administration of ethanol. In the control group, a vehicle (a 0.5% tragacanth solution) was administered orally.

[3] = system: hypothermia induced by reserpine; test: Antireserpine activity (antagonistic effect on hypothermia induced by reserpine), Test 4; format: in vivo, mouse (male ddY); conditions: mouse
Description: Antireserpine activity (antagonistic effect on hypothermia induced by reserpine)
This test was carried out according to the method of Askew [cf. Life Sci., 2, 725 (1963)].
Male ddY mice weighing 22 g to 27 g were used in groups of 5 animals each. Test compounds were administered orally to the animals, and immediately 5 mg/kg of reserpine was injected intraperitoneally. Rectal temperature of each mouse was measured 4 hours later with a thermistor (Shibaura Electric, BMG III-130). The inhibitory rate was determined by comparing the fall of rectal temperature in drug-treated groups with that in control group. In the control group, a vehicle (a 0.5% tragacanth solution) was administered orally.

[4] = system: ulceration induced by pylorus-ligation (Shay ulcer) in rats; test: Effect on the ulceration induced by pylorus-ligation (Shay ulcer) in rats, Test 3; format: in vivo, rat (male Wistar); conditions: Shay ulcer, rat; for Ulcer index: index of 0 to 5
Description: Effect on the ulceration induced by pylorus-ligation (Shay ulcer) in rats […] The portion between pylorus and duodenum of each rat was ligated under ether anesthesia according to the method of Shay et al. […] Each of the animals was then allowed to stand abstained from food and water in a cage. After 18 hours, the animals were sacrificed under ether anesthesia, and the stomachs were removed and cut along the greater curvature. […] 0: no lesion 1: hemorrhage or erosion […] The inhibitory rate was determined by comparing the ulcer index in drug-treated groups with that in the control group. […] Test compounds were administered orally 30 minutes before the ligation. In the control group, a vehicle (a 0.5% tragacanth solution) was administered orally.

[5] = po, 20 h, rat, 10 mg/kg p.o., read-out: Inhibitory rate
[6] = po, 1 h, rat, 10 mg/kg p.o., read-out: Inhibitory rate

Work on `O=C(O)/C=C\C(=O)O.O=C(O)/C=C\C(=O)O.OCCCN1CCN(c2cc(-c3ccc(F)cc3)c3ccccc3n2)CC1` [B, 2-[4-(3-hydroxypropyl)-1-piperazinyl]-4-(4-fluorophenyl)quinoline dimaleate] yielded an inhibition in vivo at 10 mg/kg [1, 5] of 61.7%, a Ulcer index ([1]; rat, 10 mg/kg p.o.) of 7.4 ± 1.2 mm and a Ulcer index ([2]; rat, 10 mg/kg p.o.) of 21.9 ± 12.1 mm. The inhibition in vivo at 10 mg/kg [2, 6] was 69.2% and the Inhibitory rate ([3]; 100 mg/kg p.o.) was 59.4%.
Work on `Clc1ccc(-c2cc(N3CCNCC3)nc3ccccc23)cc1.O=C(O)/C=C\C(=O)O` [C, 2-(1-piperazinyl)-4-(4-chlorophenyl)quinoline maleate] yielded an inhibition in vivo at 10 mg/kg [1, 5] of 65.6%, a Ulcer index ([1]; rat, 10 mg/kg p.o.) of 8.5 ± 2.9 mm and a Ulcer index ([2]; rat, 10 mg/kg p.o.) of 4.5 ± 3.7 mm. For the same compound, the inhibition in vivo at 10 mg/kg [2, 6] was 87.4% and the Inhibitory rate ([3]; 100 mg/kg p.o.) was 64.3%.
For `CN/C(=N/CCSCc1nc[nH]c1C)NC#N` [Cimetidine, reference compound], the inhibition in vivo at 20 mg/kg ([1]; Rattus norvegicus, po, 20 h, read-out: Inhibitory rate) was 39.1%, the “preventive effect on the stress-induced ulceration (in words)” value ([1]; rat, 20 mg/kg p.o.) was “did not exhibit any significant effect” and the Ulcer index ([1]; rat, 20 mg/kg p.o.) was 15.1 ± 2.9 mm. The inhibition in vivo at 100 mg/kg ([2]; Rattus norvegicus, po, 1 h, read-out: Inhibitory rate) was 25.1%, the Ulcer index ([2]; rat, 100 mg/kg p.o.) was 23.9 ± 8.2 mm and the “protective effect on the ethanol-induced ulceration (in words)” value ([2]; rat, 100 mg/kg p.o.) was “did not exhibit any significant protective effect”. The Inhibitory rate ([4]; 50 mg/kg p.o.) was 0%, the Ulcer index ([4]; 50 mg/kg p.o.) was 3.3 ± 0.3 and the Inhibitory rate ([4]; 100 mg/kg p.o.) was 9.1%. For the same compound, the Ulcer index ([4]; 100 mg/kg p.o.) was 3 ± 0.5, the Inhibitory rate ([4]; 200 mg/kg p.o.) was 42.4% and the Ulcer index ([4]; 200 mg/kg p.o.) was 1.9 ± 0.4. It also gave an Inhibitory rate ([4]; 500 mg/kg p.o.) of 75.8% and a Ulcer index ([4]; 500 mg/kg p.o.) of 0.8 ± 0.2.
Work on `CCN1CCN(c2cc(-c3ccc(Cl)cc3)c3ccccc3n2)CC1.O=C(O)/C=C\C(=O)O.O=C(O)/C=C\C(=O)O` [D, 2-(4-ethyl-1-piperazinyl)-4-(4-chlorophenyl)quinoline dimaleate] yielded an inhibition in vivo at 10 mg/kg [1, 5] of 54%, a Ulcer index ([1]; rat, 10 mg/kg p.o.) of 13.4 ± 2.1 mm and a Ulcer index ([2]; rat, 10 mg/kg p.o.) of 8.6 ± 4.5 mm. The inhibition in vivo at 10 mg/kg [2, 6] was 89% and the Inhibitory rate ([3]; 100 mg/kg p.o.) was 45.2%.
For `O=C(O)/C=C\C(=O)O.O=C(O)/C=C\C(=O)O.OCCN1CCN(c2cc(-c3ccc(C(F)(F)F)cc3)c3ccccc3n2)CC1` [F, 2-[4-(2-hydroxyethyl)-1-piperazinyl]-4-(4-trifluoromethylphenyl)quinoline dimaleate], the inhibition in vivo at 10 mg/kg [1, 5] was 41.6%, the Ulcer index ([1]; rat, 10 mg/kg p.o.) was 19.8 ± 2.0 mm and the Ulcer index ([2]; rat, 10 mg/kg p.o.) was 6.7 ± 1.8 mm. The inhibition in vivo at 10 mg/kg [2, 6] was 87.2%.
`O=C(O)/C=C\C(=O)O.O=C(O)/C=C\C(=O)O.OCCN1CCN(c2cc(-c3ccc(Cl)cc3)c3ccccc3n2)CC1` [G, 2-[4-(2-hydroxyethyl)-1-piperazinyl]-4-(4-chlorophenyl)quinoline dimaleate] was tested, and the inhibition in vivo at 10 mg/kg [1, 5] was 36.4%, the Ulcer index ([1]; rat, 10 mg/kg p.o.) was 18.5 ± 6.9 mm and the Ulcer index ([2]; rat, 10 mg/kg p.o.) was 10.8 ± 6.3 mm. For the same compound, the inhibition in vivo at 10 mg/kg [2, 6] was 76.1%.
`FC(F)(F)c1cccc(-c2cc(N3CCNCC3)nc3ccccc23)c1.O=C(O)/C=C\C(=O)O.O=C(O)/C=C\C(=O)O` [H, 2-(1-piperazinyl)-4-(3-trifluoromethylphenyl)quinoline dimaleate] showed an inhibition in vivo at 10 mg/kg [1, 5] of 4.3%, a Ulcer index ([1]; rat, 10 mg/kg p.o.) of 24.7 ± 3.6 mm and a Ulcer index ([2]; rat, 10 mg/kg p.o.) of 7.1 ± 1.9 mm. The inhibition in vivo at 10 mg/kg [2, 6] was 84.3%.
`CCN1CCN(c2cc(-c3cccc(C(F)(F)F)c3)c3ccccc3n2)CC1.O=C(O)/C=C\C(=O)O.O=C(O)/C=C\C(=O)O` [I, 2-(4-ethyl-1-piperazinyl)-4-(3-trifluoromethylphenyl)quinoline dimaleate] was tested, and the inhibition in vivo at 10 mg/kg [1, 5] was 20.1%, the Ulcer index ([1]; rat, 10 mg/kg p.o.) was 27.1 ± 2.2 mm and the Ulcer index ([2]; rat, 10 mg/kg p.o.) was 16.5 ± 3.9 mm. The inhibition in vivo at 10 mg/kg [2, 6] was 63.5%.
`CN(C)CCCN1c2ccccc2CCc2ccccc21` [Imipramine hydrochloride, reference compound] was tested, and the Inhibitory rate ([3]; 10 mg/kg p.o.) was 29.5%, the Inhibitory rate ([3]; 30 mg/kg p.o.) was 69.3% and the Inhibitory rate ([3]; 100 mg/kg p.o.) was 94.5%.
For `O=C(O)/C=C\C(=O)O.O=C(O)/C=C\C(=O)O.OCCN1CCN(c2cc(-c3cccc(C(F)(F)F)c3)c3ccccc3n2)CC1` [J, 2-[4-(2-hydroxyethyl)-1-piperazinyl]-4-(3-trifluoromethylphenyl)quinoline dimaleate], the inhibition in vivo at 10 mg/kg [1, 5] was -2.7%, the Ulcer index ([1]; rat, 10 mg/kg p.o.) was 34.8 ± 3.9 mm and the Ulcer index ([2]; rat, 10 mg/kg p.o.) was 9.0 ± 4.2 mm. For the same compound, the inhibition in vivo at 10 mg/kg [2, 6] was 74.8%.
